# Reference: PubChem BioAssay AID1259407 (Chemical Carcinogenesis Research Information System (CCRIS), 2018)
# Active and inactive are the calls of the source. The rule behind the calls is not given here.
# System: CCRIS mutagenicity, Ames/micronucleus/aberration tests
# Assay: CCRIS mutagenicity studies
# [1] = Test System: AMES SALMONELLA TYPHIMURIUM, Strain/Indicator: TA98, Metabolic Activation: NONE, Method: STANDARD PLATE
# [2] = Test System: AMES SALMONELLA TYPHIMURIUM, Strain/Indicator: TA100, Metabolic Activation: NONE, Method: STANDARD PLATE
# [3] = Test System: AMES SALMONELLA TYPHIMURIUM, Strain/Indicator: TA98, Metabolic Activation: RAT, LIVER, S-9, AROCLOR 1254, Method: STANDARD PLATE
# [4] = Test System: AMES SALMONELLA TYPHIMURIUM, Strain/Indicator: TA100, Metabolic Activation: RAT, LIVER, S-9, AROCLOR 1254, Method: STANDARD PLATE
# [5] = Test System: AMES SALMONELLA TYPHIMURIUM, Strain/Indicator: TA1535, Metabolic Activation: NONE, Method: STANDARD PLATE
# [6] = Test System: AMES SALMONELLA TYPHIMURIUM, Strain/Indicator: TA1535, Metabolic Activation: RAT, LIVER, S-9, AROCLOR 1254, Method: STANDARD PLATE
# [7] = Test System: AMES SALMONELLA TYPHIMURIUM, Strain/Indicator: TA1537, Metabolic Activation: NONE, Method: STANDARD PLATE
# [8] = Test System: AMES SALMONELLA TYPHIMURIUM, Strain/Indicator: TA1537, Metabolic Activation: RAT, LIVER, S-9, AROCLOR 1254, Method: STANDARD PLATE
# [9] = Test System: AMES SALMONELLA TYPHIMURIUM, Strain/Indicator: TA1535, Metabolic Activation: HAMSTER, LIVER, S-9, AROCLOR 1254, Method: STANDARD PLATE
# [10] = Test System: AMES SALMONELLA TYPHIMURIUM, Strain/Indicator: TA98, Metabolic Activation: HAMSTER, LIVER, S-9, AROCLOR 1254, Method: STANDARD PLATE
# [11] = Test System: AMES SALMONELLA TYPHIMURIUM, Strain/Indicator: TA100, Metabolic Activation: HAMSTER, LIVER, S-9, AROCLOR 1254, Method: STANDARD PLATE
# [12] = Test System: AMES SALMONELLA TYPHIMURIUM, Strain/Indicator: TA1537, Metabolic Activation: HAMSTER, LIVER, S-9, AROCLOR 1254, Method: STANDARD PLATE
# [13] = Test System: AMES SALMONELLA TYPHIMURIUM, Strain/Indicator: TA1538, Metabolic Activation: HAMSTER, LIVER, S-9, AROCLOR 1254, Method: STANDARD PLATE
# [14] = Test System: AMES SALMONELLA TYPHIMURIUM, Strain/Indicator: TA1538, Metabolic Activation: NONE, Method: STANDARD PLATE
# [15] = Test System: AMES SALMONELLA TYPHIMURIUM, Strain/Indicator: TA1538, Metabolic Activation: RAT, LIVER, S-9, AROCLOR 1254, Method: STANDARD PLATE
# [16] = Test System: MOUSE LYMPHOMA, Strain/Indicator: L5178Y (TK+/TK-), Metabolic Activation: NONE, Method: SUSPENSION/PLATE
# [17] = Test System: MOUSE LYMPHOMA, Strain/Indicator: L5178Y (TK+/TK-), Metabolic Activation: RAT, LIVER, S-9, AROCLOR 1254, Method: SUSPENSION/PLATE
Compound,mutagenic call [1],mutagenic call [2],mutagenic call [3],mutagenic call [4],mutagenic call [5],mutagenic call [6],mutagenic call [7],mutagenic call [8],mutagenic call [9],mutagenic call [14],mutagenic call [16],other results
CC(=O)CC1CCC(=O)CCC(=O)OC(CC(C)=O)CCC(O)CCC(=O)O1 (stereo not drawn),–,–,–,–,–,–,–,–,–,–,–,"mutagenic call (Test System: CHINESE HAMSTER V-79, Strain/Indicator: V-79 (HPRT)/6-THIOGUANINE, Metabolic Activation: NONE): inactive; negative"
O=C1C=Cc2ccc3c4c(ccc1c24)C=CC3=O,inactive; negative,inactive; negative,–,–,–,–,–,–,–,–,–,"mutagenic call (Test System: AMES SALMONELLA TYPHIMURIUM, Strain/Indicator: TA97, Metabolic Activation: NONE, Method: STANDARD PLATE): active; positive; mutagenic call (Test System: AMES SALMONELLA TYPHIMURIUM, Strain/Indicator: TA97, Metabolic Activation: RAT, LIVER, S-9, PCB, Method: STANDARD PLATE): active; positive; mutagenic call (Test System: AMES SALMONELLA TYPHIMURIUM, Strain/Indicator: TA98, Metabolic Activation: RAT, LIVER, S-9, PCB, Method: STANDARD PLATE): inactive; negative; mutagenic call (Test System: AMES SALMONELLA TYPHIMURIUM, Strain/Indicator: TA100, Metabolic Activation: RAT, LIVER, S-9, PCB, Method: STANDARD PLATE): inactive; negative"
CN(C)CCNS(=O)(=O)c1cccc2cccnc12,inactive; negative,inactive; negative,inactive; negative,inactive; negative,inactive; negative,inactive; negative,inactive; negative,inactive; negative,–,–,–,–
Nc1ccc(O)c2c1C(O)=CC(=O)C2=O,–,–,–,–,–,–,–,–,–,–,–,"mutagenic call (Test System: Ames Salmonella typhimurium, Strain/Indicator: TA97, Metabolic Activation: None, Method: Preincubation): inactive; negative; mutagenic call (Test System: Ames Salmonella typhimurium, Strain/Indicator: TA97, Metabolic Activation: Rat, Liver, S9, Aroclor 1254, Method: Preincubation): inactive; negative; mutagenic call (Test System: Ames Salmonella typhimurium, Strain/Indicator: TA98, Metabolic Activation: None, Method: Preincubation): active; positive; mutagenic call (Test System: Ames Salmonella typhimurium, Strain/Indicator: TA98, Metabolic Activation: Rat, Liver, S9, Aroclor 1254, Method: Preincubation): inactive; negative; mutagenic call (Test System: Ames Salmonella typhimurium, Strain/Indicator: TA100, Metabolic Activation: None, Method: Preincubation): inactive; negative; mutagenic call (Test System: Ames Salmonella typhimurium, Strain/Indicator: TA100, Metabolic Activation: Rat, Liver, S9, Aroclor 1254, Method: Preincubation): inactive; negative; mutagenic call (Test System: Ames Salmonella typhimurium, Strain/Indicator: TA102, Metabolic Activation: None, Method: Preincubation): inactive; negative; mutagenic call (Test System: Ames Salmonella typhimurium, Strain/Indicator: TA102, Metabolic Activation: Rat, Liver, S9, Aroclor 1254, Method: Preincubation): active; positive"
COC(=O)c1ccc(CN(C)N=O)cc1,–,–,–,–,inactive; negative,–,–,–,inactive; negative,–,–,–
Nc1nc2c(ncn2COC(CO)CO)c(=O)[nH]1,–,–,–,–,–,–,–,–,–,–,–,"mutagenic call (End Point: IN VITRO CHROMOSOMAL ABERRATIONS, Test System: CHO CELLS (CHO-HSVTK), Metabolic Activation: NONE): active; positive (structural changes); concentration chosen also induced apoptosis"
O=c1c(O)c(O)c1=O,inactive; negative,inactive; negative,inactive; negative,inactive; negative,inactive; negative,inactive; negative,inactive; negative,inactive; negative,inactive; negative,inactive; negative,inactive; negative. reevaluation of results: negative,mutagenic call [10]: inactive; negative; mutagenic call [11]: inactive; negative; mutagenic call [12]: inactive; negative; mutagenic call [13]: inactive; negative; mutagenic call [15]: inactive; negative; mutagenic call [17]: inactive; negative. reevaluation of results: negative
N#CCCNCCC#N,inactive; negative,inactive; negative,inactive; negative,inactive; negative,inactive; negative,inactive; negative,inactive; negative,inactive; negative,inactive; negative,inactive; negative,inactive; negative. reevaluation of results: negative,mutagenic call [10]: inactive; negative; mutagenic call [11]: inactive; negative; mutagenic call [12]: inactive; negative; mutagenic call [13]: inactive; negative; mutagenic call [15]: inactive; negative; mutagenic call [17]: active; positive. reevaluation of results: equivocal
NC(=O)c1cc[n+](COC[n+]2ccccc2/C=N/O)cc1,inactive; negative,inactive; negative,–,–,inactive; negative,–,inactive; negative,–,–,inactive; negative,inactive; negative,"mutagenic call (Test System: AMES SALMONELLA TYPHIMURIUM, Strain/Indicator: TA98, Metabolic Activation: RAT, LIVER, S-9, Method: STANDARD PLATE): inactive; negative; mutagenic call (Test System: AMES SALMONELLA TYPHIMURIUM, Strain/Indicator: TA100, Metabolic Activation: RAT, LIVER, S-9, Method: STANDARD PLATE): inactive; negative; mutagenic call (Test System: AMES SALMONELLA TYPHIMURIUM, Strain/Indicator: TA1535, Metabolic Activation: RAT, LIVER, S-9, Method: STANDARD PLATE): inactive; negative; mutagenic call (Test System: AMES SALMONELLA TYPHIMURIUM, Strain/Indicator: TA1537, Metabolic Activation: RAT, LIVER, S-9, Method: STANDARD PLATE): inactive; negative; mutagenic call (Test System: AMES SALMONELLA TYPHIMURIUM, Strain/Indicator: TA1538, Metabolic Activation: RAT, LIVER, S-9, Method: STANDARD PLATE): inactive; negative; mutagenic call (Test System: CHINESE HAMSTER OVARY, Strain/Indicator: CHO-K1-BH4 (HGPRT)/6-THIOGUANINE, Metabolic Activation: NONE): inactive; negative; mutagenic call (Test System: CHINESE HAMSTER OVARY, Strain/Indicator: CHO-K1-BH4 (HGPRT)/6-THIOGUANINE, Metabolic Activation: RAT, LIVER, S-9, Method: SUSPENSION/PLATE): inactive; negative"
